According to the supplement of paper PMC10307832:

Assays:
Assay in all cases: relative viability (nuclei count vs DMSO), 5 days (fraction); higher = more cells survive
[1] = compound: CC(=O)c1c(C)c2cnc(Nc3ccc(N4CCNCC4)cn3)nc2n(C2CCCC2)c1=O [Palbociclib] + CCNC(=O)c1noc(-c2cc(C(C)C)c(O)cc2O)c1-c1ccc(CN2CCOCC2)cc1 [Luminespib] (partner 0.01 µM)
Procedure, shortened: (§1)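 Medians of duplicate plates are given as relative viability. That measure is the nuclei count in treated wells divided by the count in vehicle wells. Counts were taken on 4× images of lung cancer cell lines in 1536-well plates, 5 days after pin-tool dosing the day after seeding with one drug alone or a fixed anchor-drug dose plus five library-drug doses (not always all listed) in √10 steps.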

[2] = compound: CC(=O)c1c(C)c2cnc(Nc3ccc(N4CCNCC4)cn3)nc2n(C2CCCC2)c1=O [Palbociclib] + Cc1nc(Nc2ncc(C(=O)Nc3c(C)cccc3Cl)s2)cc(N2CCN(CCO)CC2)n1 [Dasatinib] (partner 0.075 µM)
Procedure, shortened: as §1

[3] = compound: CC(=O)c1c(C)c2cnc(Nc3ccc(N4CCNCC4)cn3)nc2n(C2CCCC2)c1=O [Palbociclib] + N=C(N)NC(=N)NCCc1ccccc1 [Phenformin] (partner 250 µM)
Procedure, shortened: as §1

[4] = compound: CC(=O)c1c(C)c2cnc(Nc3ccc(N4CCNCC4)cn3)nc2n(C2CCCC2)c1=O [Palbociclib] + O=C(CCCCCCC(=O)Nc1ccccc1)NO [Vorinostat] (partner 1 µM)
Procedure, shortened: as §1

Cell Line | relative viability ([1]; first compound 0.01 µM) | relative viability ([1]; first compound 0.03162 µM) | relative viability ([1]; first compound 0.1 µM) | relative viability ([1]; first compound 0.3162 µM) | relative viability ([1]; first compound 1 µM) | relative viability ([2]; first compound 0.01 µM) | relative viability ([2]; first compound 0.03162 µM) | relative viability ([2]; first compound 0.1 µM) | relative viability ([2]; first compound 0.3162 µM) | relative viability ([2]; first compound 1 µM) | relative viability ([3]; first compound 0.01 µM) | relative viability ([3]; first compound 0.03162 µM) | relative viability ([3]; first compound 0.1 µM) | relative viability ([3]; first compound 0.3162 µM) | relative viability ([3]; first compound 1 µM) | relative viability ([4]; first compound 0.01 µM) | relative viability ([4]; first compound 0.03162 µM) | relative viability ([4]; first compound 0.1 µM) | relative viability ([4]; first compound 0.3162 µM) | relative viability ([4]; first compound 1 µM)
201T | 1.02 | 1.01 | 0.909 | 0.878 | 0.749 | 0.54 | 0.494 | 0.579 | 0.388 | 0.324 | 0.469 | 0.359 | 0.359 | 0.381 | 0.311 | 1.02 | 0.567 | 0.837 | 0.752 | 0.532
A549 | – | – | – | – | – | – | – | – | – | – | 0.205 | 0.0665 | 0.11 | 0.129 | 0.096 | – | – | – | – | –
A-427 | 0.991 | 0.809 | 0.691 | 0.74 | 0.501 | 0.672 | 0.607 | 0.561 | 0.523 | 0.485 | 0.392 | 0.2 | 0.282 | 0.269 | 0.212 | 0.855 | 0.789 | 0.711 | 0.652 | 0.527
ABC-1 | 0.625 | 0.521 | 0.423 | 0.459 | 0.949 | 0.546 | 0.537 | 0.493 | 0.457 | 0.377 | 0.227 | 0.202 | 0.232 | 0.233 | 0.24 | 1.18 | 1.03 | 0.552 | 1.03 | 0.453
BEN | 0.619 | 0.225 | 0.269 | 0.205 | 0.194 | 0.39 | 0.324 | 0.229 | 0.235 | 0.208 | 0.285 | 0.243 | 0.237 | 0.249 | 0.257 | 0.568 | 0.542 | 0.509 | 0.58 | 0.517
CAL-12T | 0.367 | 0.318 | 0.463 | 0.277 | 0.206 | 0.486 | 0.383 | 0.248 | 0.273 | 0.22 | 0.603 | 0.475 | 0.429 | 0.421 | 0.324 | 0.781 | 0.747 | 0.595 | 0.581 | 0.505
COR-L23 | 0.647 | 0.515 | 0.511 | 0.429 | 0.434 | 0.575 | 0.431 | 0.241 | 0.334 | 0.2 | 0.438 | 0.37 | 0.304 | 0.345 | 0.263 | 0.461 | 0.346 | 0.328 | 0.244 | 0.223
COR-L 105 | 0.689 | 0.814 | 0.596 | 0.475 | 0.536 | 0.339 | 0.312 | 0.274 | 0.326 | 0.253 | 0.467 | 0.54 | 0.381 | 0.385 | 0.33 | 0.9 | 0.887 | 0.612 | 0.611 | 0.482
ChaGo-K-1 | 0.532 | 0.575 | 0.893 | 0.689 | 0.62 | 0.545 | 0.539 | 0.615 | 0.594 | 0.593 | 0.484 | 0.376 | 0.503 | 0.458 | 0.524 | 0.726 | – | 0.696 | 0.721 | 0.746
EKVX | 0.856 | 0.745 | 0.919 | 0.841 | 0.605 | 0.467 | 0.444 | 0.502 | 0.455 | 0.372 | 0.23 | 0.192 | 0.238 | 0.245 | 0.145 | 0.702 | 0.509 | 0.625 | 0.549 | 0.483
EMC-BAC-2 | 1.19 | 1.15 | 0.952 | 0.979 | 0.848 | 0.3 | 0.258 | 0.302 | 0.32 | 0.256 | 0.537 | 0.394 | 0.401 | 0.374 | 0.342 | 0.461 | 0.39 | 0.379 | 0.376 | 0.308
EPLC-272H | 0.225 | – | 0.346 | 0.518 | 0.379 | 0.328 | – | 0.345 | 0.249 | 0.198 | 0.316 | – | 0.265 | 0.291 | 0.198 | 0.535 | 0.647 | 0.46 | 0.401 | 0.245
H3255 | 0.925 | 0.91 | 0.65 | 0.587 | 0.464 | 0.347 | 0.386 | 0.338 | 0.322 | 0.277 | 0.38 | 0.361 | 0.319 | 0.368 | 0.287 | 0.907 | 0.688 | 0.687 | 0.68 | 0.549
HARA | 0.65 | – | 0.447 | 0.514 | 0.28 | 0.27 | – | 0.24 | 0.193 | 0.149 | 0.509 | – | 0.309 | 0.258 | 0.203 | 0.446 | – | 0.384 | 0.608 | 0.511
HCC-15 | 0.267 | – | 0.378 | 0.502 | 0.418 | 0.622 | – | 0.516 | 0.598 | 0.439 | 0.463 | – | 0.405 | 0.421 | 0.323 | 0.871 | – | 0.768 | 0.684 | 0.581
HCC-44 | 0.933 | 1.01 | 1.02 | 1.35 | 1.11 | – | – | – | – | – | 0.234 | – | 0.171 | 0.223 | 0.204 | 1.09 | 1.08 | 1.15 | 1.03 | 1.13

Cell Line | relative viability ([1]; first compound 0.01 µM) | relative viability ([1]; first compound 0.03162 µM) | relative viability ([1]; first compound 0.1 µM) | relative viability ([1]; first compound 0.3162 µM) | relative viability ([1]; first compound 1 µM) | relative viability ([2]; first compound 0.01 µM) | relative viability ([2]; first compound 0.03162 µM) | relative viability ([2]; first compound 0.1 µM) | relative viability ([2]; first compound 0.3162 µM) | relative viability ([2]; first compound 1 µM) | relative viability ([3]; first compound 0.01 µM) | relative viability ([3]; first compound 0.03162 µM) | relative viability ([3]; first compound 0.1 µM) | relative viability ([3]; first compound 0.3162 µM) | relative viability ([3]; first compound 1 µM) | relative viability ([4]; first compound 0.01 µM) | relative viability ([4]; first compound 0.03162 µM) | relative viability ([4]; first compound 0.1 µM) | relative viability ([4]; first compound 0.3162 µM) | relative viability ([4]; first compound 1 µM)
HCC-78 | – | – | – | – | – | 0.348 | 0.361 | 0.348 | 0.26 | 0.215 | 0.727 | 0.624 | 0.554 | 0.44 | 0.318 | 0.502 | 0.38 | 0.415 | 0.418 | 0.299
HCC-366 | – | – | – | – | – | 0.611 | – | 0.605 | 0.444 | 0.174 | 0.626 | – | 0.645 | 0.427 | 0.396 | 0.388 | – | 0.289 | 0.213 | 0.135
HCC-827 | 0.398 | 0.539 | 0.582 | 0.609 | 0.532 | 0.296 | 0.234 | 0.311 | 0.264 | 0.288 | 0.41 | 0.285 | 0.319 | 0.384 | 0.289 | 0.863 | 0.65 | 0.787 | 0.636 | 0.598
HOP-62 | 0.905 | 0.844 | 0.91 | 0.716 | 0.675 | 0.704 | – | 0.57 | 0.525 | 0.463 | 0.642 | – | 0.644 | 0.502 | 0.47 | 0.499 | – | 0.423 | 0.482 | 0.395
IA-LM | – | – | – | – | – | – | – | – | – | – | – | – | – | – | – | 0.955 | – | 0.661 | 0.724 | 0.312
LC-2-ad | 0.944 | – | 0.856 | 0.8 | 0.535 | 0.459 | – | 0.541 | 0.446 | 0.325 | 0.573 | – | 0.523 | 0.414 | 0.383 | 0.712 | 0.351 | 0.561 | 0.561 | 0.475
LCLC-97TM1 | 0.666 | 0.702 | 0.684 | 0.486 | 0.281 | 0.694 | 0.572 | 0.738 | 0.585 | 0.329 | 0.41 | 0.32 | 0.414 | 0.351 | 0.227 | 0.698 | – | 0.423 | 0.363 | 0.249
LCLC-103H | 0.978 | 0.808 | 0.848 | 0.718 | 0.584 | 0.44 | 0.331 | 0.452 | 0.367 | 0.307 | 0.33 | 0.28 | 0.318 | 0.248 | 0.223 | 0.743 | 0.512 | 0.62 | 0.668 | 0.445
LK-2 | 0.208 | – | 0.166 | 0.191 | 0.158 | 0.356 | – | 0.305 | 0.301 | 0.321 | 0.507 | – | 0.305 | 0.309 | 0.38 | 0.383 | 0.217 | 0.281 | 0.248 | 0.324
LOU-NH91 | 0.341 | 0.322 | 0.271 | 0.348 | 0.324 | 0.66 | 0.425 | 0.429 | 0.434 | 0.41 | 0.832 | 0.563 | 0.503 | 0.504 | 0.472 | 1.02 | 0.623 | 0.695 | 0.675 | 0.673
LU99A | 0.254 | 0.201 | 0.232 | 0.251 | 0.2 | 0.506 | 0.428 | 0.353 | 0.344 | 0.379 | 0.851 | 0.507 | 0.688 | 0.837 | 0.602 | 0.517 | – | 0.435 | 0.587 | 0.399
LXF-289 | 0.627 | 0.71 | 0.604 | 0.709 | 0.554 | 0.208 | 0.0993 | 0.164 | 0.148 | 0.174 | 0.51 | 0.294 | 0.452 | 0.462 | 0.378 | 0.77 | 0.268 | 0.66 | 0.782 | 0.672
NCI-H23 | 0.216 | 0.214 | 0.219 | 0.196 | 0.236 | 0.835 | – | 0.8 | 0.732 | 0.541 | 0.795 | – | 0.704 | 0.781 | 0.506 | 0.617 | 0.531 | 0.406 | 0.509 | 0.411
NCI-H1563 | 0.479 | 0.444 | 0.432 | 0.577 | 0.489 | 0.456 | 0.44 | 0.484 | 0.471 | 0.429 | 0.709 | 0.636 | 0.639 | 0.654 | 0.537 | – | – | – | – | –
NCI-H1792 | 0.558 | 0.498 | 0.288 | 0.327 | 0.371 | 0.848 | 0.727 | 0.63 | 0.551 | 0.468 | 0.389 | 0.237 | 0.209 | 0.193 | 0.1 | – | – | – | – | –
